Values quoted from earlier work in paper PMC12506672, “A phase I study of HEC73543, an oral FLT3 inhibitor: the effect of food on pharmacokinetics after oral dosing in healthy Chinese volunteers” (Frontiers in Pharmacology, 2025).

How the values were obtained:
[1] = design: method as in Kim, 2017; settings: standard or high-fat meal compared to fasting; ref Kim, 2017
[2] = design: method as in James et al., 2020; settings: high-fat meal, healthy subjects; ref James et al., 2020
[3] = test system: FLT3-ITD–positive leukemia samples; design: method as in Cucchi et al., 2018; settings: ex vivo, especially high allelic ratio (AR ≥ 0.5); ref Cucchi et al., 2018

delay of Tmax with food [1] | increase of AUC exposure with food [1] | lowering of Cmax with food [1] | GLSM ratio (fed/fasted %) for AUC0–t [2] | GLSM ratio (fed/fasted %) for AUC0–∞ [2] | GLSM ratio (fed/fasted %) for AUC72 [2] | GLSM ratio (fed/fasted %) for Cmax [2] | Compound | colony-forming capacity [3]
2.5 to 3 h | 1.2- to 1.6 fold | 20%–27% | – | – | – | – | CO[C@@H]1[C@H](N(C)C(=O)c2ccccc2)C[C@H]2O[C@]1(C)n1c3ccccc3c3c4c(c5c6ccccc6n2c5c31)C(=O)NC4 [midostaurin] | –
– | – | – | 94.6% | 93.8% | 91.0% | 74.0% | CCc1nc(C(N)=O)c(Nc2ccc(N3CCC(N4CCN(C)CC4)CC3)c(OC)c2)nc1NC1CCOCC1 [gilteritinib] | markedly suppresses
